Experimental data published in patent publication US12226432B2, “Polymer nanoparticle, polymer composition, method of making a polymer nanoparticle, method for treatment of bacterial biofilms, and method for detection of bacterial biofilms” (UNIVERSITY OF MASSACHUSETTS, priority 2016, dated 2025).

Key:
[1] = system: uropathogenic E. coli (CD-2); assay type: cell-based; conditions: serial passaging at sub-MIC, CD-2 E. coli
Protocol: The culture was then harvested and tested for MIC as describe above. E. coli CD-2 was cultured without polymer as well every time as a control for comparison of MICs.
Bacteria are capable of acquiring resistance quickly towards antibiotics and other antimicrobials, minimizing their therapeutic prospects in clinical settings. […] The resulting bacterial population was defined as the first generation, harvested, and its MIC was evaluated. Subsequently, a second generation was produced by exposing first generation with 66% MIC dosage of polymers. […] Similar experiments were conducted on ciprofloxacin (quinolone) and ceftazidime ([…]), clinically relevant antibiotics.

[2] = system: Acinetobacter species CD-575; assay: Checkerboard titration, antibiotic-nanoparticle synergy, CD-575; assay type: cell-based; conditions: in combination with polymer nanoparticles, FIG. 20
Protocol: (§1) To assess possible synergy between antibiotics and polymeric nanoparticles, two-dimensional checkerboard titrations were performed using a micro-dilution method. […] The checkerboard titrations were performed in a set of three independent experiments, repeated on different days.
(§2) Antibiotic-nanoparticle interaction was determined by calculating the fractional inhibitory concentration of antibiotics (FICAb) and NPs (FICNP) according to the following equations: FICAb=(MIC of antibiotic and NP combination)÷(MIC of antibiotic alone) FICNP=(MIC of antibiotic and NP combination)÷(MIC of NP alone) FICIcombination=FICAb+FICNP
(§3) FICAb was plotted against FICNP. A concave curve indicates synergy, whereas a convex curve indicates antagonism. Synergy was defined as FICI values ≤0.5, antagonism by FICI values >4.0, and additive interaction by FICI values between >0.5 and 4.0. The experiments were conducted across four different planktonic bacteria strains (E. clocae complex “CD-1412”; Pseudomonas aeruginosa “CD-40”; E. coli “CD-549”; and Acinetobacter species “CD-575”). […] In the presence of polymer nanoparticles, colistin's uptake in biofilms is enhanced nearly 3.5 times.

[3] = system: E. coli CD-549; assay: Checkerboard titration, antibiotic-nanoparticle synergy, CD-549; assay type: cell-based; conditions: in combination with polymer nanoparticles, FIG. 20
Protocol: as §1, §2, §3

[4] = system: Pseudomonas aeruginosa CD-40; assay: Checkerboard titration, antibiotic-nanoparticle synergy, CD-40; assay type: cell-based; conditions: in combination with polymer nanoparticles, FIG. 20
Protocol: as §1, §2, §3

[5] = system: E. clocae complex CD-1412; assay: Checkerboard titration, antibiotic-nanoparticle synergy, CD-1412; assay type: cell-based, E. cloacae; conditions: in combination with polymer nanoparticles, FIG. 20
Protocol: as §1, §2, §3

[6] = system: red blood cells (RBCs); assay: Hemolysis of red blood cells (HC50); assay type: cell-based, human
Protocol: Determination of Hemolysis of Cationic Polymers: Citrate-stabilized human whole blood (pooled, mixed gender) was purchased from Bioreclamation LLC, NY and processed as soon as received. 10 milliliters of phosphate buffered saline (PBS) was added to the blood and centrifuged at 5000 rpm for 5 minutes. The supernatant was carefully discarded and the red blood cells (RBCs) were dispersed in 10 milliliters of PBS. This step was repeated at least five times. The purified RBCs were diluted in 10 milliliters of PBS and kept on ice during the sample preparation. 0.1 milliliter of RBC solution was added to 0.4 milliliters of polymer solution in PBS in a 1.5 milliliter centrifuge tube (Fisher) and mixed gently by pipetting. RBCs incubated with PBS and water was used as negative and positive controls, respectively. All polymer samples as well as controls were prepared in triplicate. The mixture was incubated at 37° C. for 30 minutes while shaking at 150 rpm. After incubation period, the solution was centrifuged at 4000 rpm for 5 minutes and 100 microliters of supernatant was transferred to a 96-well plate. The absorbance value of the supernatant was measured at 570 nm using a microplate reader (SpectraMax M2, Molecular devices) with absorbance at 655 nm as a reference. The percent hemolysis was calculated using the following formula: […]

[7] = system: NIH 3T3 fibroblast cells; assay type: cell-based
Protocol: The ability to eradicate biofilms on human tissue or organs is also of significant importance. An in vitro co-culture model of mammalian fibroblast cells with biofilms grown over them was used. […] Next, P. aeruginosa bacteria was seeded on a confluent monolayer of NIH 3T3 fibroblast cells overnight to generate biofilms prior to treatment.

CC(C)(O/N=C(\C(=O)N[C@@H]1C(=O)N2C(C(=O)[O-])=C(C[n+]3ccccc3)CS[C@H]12)c1csc(N)n1)C(=O)O [ceftazidime]
increase in the MICs after serial passaging [1]: 4,200 fold

O=C(O)c1cn(C2CC2)c2cc(N3CCNCC3)c(F)cc2c1=O [ciprofloxacin]
increase in the MICs after serial passaging [1]: 33,000 fold

colistin
antibiotic-nanoparticle interaction (FICI) [2]: therapeutically synergistic
antibiotic-nanoparticle interaction (FICI) [3]: therapeutically synergistic
antibiotic-nanoparticle interaction (FICI) [4]: therapeutically synergistic
antibiotic-nanoparticle interaction (FICI) [5]: therapeutically synergistic

poly(oxanorbomeneimide)undecyl trimethylammonium analog [Example 5]
HC50 [6]: 4700 µg/mL
toxicity to NIH 3T3 fibroblast cells [7]: No significant toxicity
